US8378117B2 (priority 2005, dated 2013)

Tested on: Male CD-1 mice
Assay: Postoperative inflammatory ileus, upper gastrointestinal transit (FITC-dextran, Geometric Center)
Assay type: in vivo
Conditions: Surgical Manipulation, 24 hr post-laparotomy, mean ± SE, scale 1 to 15
Procedure: Male CD-1 mice were anesthetized by inhaled isoflurane and prepared for surgery. The abdomen was shaved of hair and treated with antiseptic solution. The animal was then covered with a surgical drape, leaving the abdomen exposed. A mid-line laparotomy was performed, and the entire small intestine was exteriorized onto the sterile drape. Using two moistened, sterile, cotton-tipped applicators, the small intestine was then gently compressed along its length from the ligament of Treitz to the ileo-cecal junction. The small intestine was then returned to the abdominal cavity and the incision closed by two layers of sutures.
Age-matched mice were randomly assigned to groups (6 animals per group) and injected intraperitoneally (i.p.) with “vehicle” (a mixture of 5% ethanol/5% Tween80/90% of 5% dextran in water w/v) containing various doses of a test compound 1 hr prior to laparotomy. The second group was injected intraperitoneally with vehicle. The third group was administered intragastrically (1 mg/kg) a mixture (1 mg/mL) of dexamethasone in 20% hydroxypropyl methyl dextran in water, once per day for two days prior to surgery and 5 hrs post-laparotomy. The fourth group received no intervention and served as naïve controls.
Upper gastrointestinal transit was measured 24 hr post-laparotomy. Mice were fed a test meal consisting of 150 μL of FITC-dextran solution (5 mg/mL of 70,000 molecular weight dextran conjugated to fluorescein-isothiocyanate in 0.5% hydroxypropyl methylcellulose/deionized water) administered intragastrically by an 18 gauge feeding tube. Following oral administration of the FITC-dextran test meal, animals were returned to their home cages. Following a 45 min test period, mice were euthanized by isoflurane overdose and exsanguination. The entire gastrointestinal tract from the lower esophageal sphincter to the terminal colon was removed. The bowel segments were opened along the mesenteric border. The tissue and luminal contents of the stomach, 10 equal segments of small intestine, the cecum, and 3 equal segments of colon were placed in individual Eppendorf tubes containing 1 ml of PBS. The tissue was vigorously mixed on a tabletop vortex, and solid materials were pelletized by centrifugation. Aliquots of the cleared supernatant were read in duplicate on a 96-well fluorescence plate reader to quantify the magnitude of the fluorescent signal in each segment of bowel.
These values were used to calculate the Geometric Center (REF), which is defined as the weighted average distribution of the fluorescent signal along the gastrointestinal tract: GC=Σ(% of total fluorescent signal per segment×segment number)/100,
Higher GC values represent faster rates of transit on scale of 1 to 15.
Surgical manipulation of the small bowel leads to a significant delay in gastrointestinal transit, going from a Geometric Center of 8.4 in normal mice to 3.3 in vehicle treated animals.

Compound	Geometric Center (upper gastrointestinal transit) (dose 10 mg/kg)	Geometric Center (upper gastrointestinal transit) (dose 30 mg/kg)	Geometric Center (upper gastrointestinal transit) (dose 1 mg/kg)	Geometric Center (upper gastrointestinal transit) (dose 3 mg/kg)
C[C@H](NS(=O)(=O)/C=C/c1n[nH]c2c1CCCCC2Cc1cccc(F)c1)c1ccccc1 (single isomer, unassigned) [Cpd 232, (2E)-2-[(8R*)-8-(3-fluoro-benzyl)-1,4,5,6,7,8-hexahydro-cycloheptapyrazol-3-yl]-ethenesulfonic acid [(1S)-1-phenyl-ethyl]-amide]	4.0 ± 0.59	5.6 ± 0.16		
C[C@H](NS(=O)(=O)/C=C/c1n[nH]c2c1CCCC/C2=C\c1ccc(Cl)cc1)c1ccccc1 [Cpd 237, (2E,8E)-2-[8-(4-chloro-benzylidene)-1,4,5,6,7,8-hexahydro-cycloheptapyrazol-3-yl]-ethenesulfonic acid [(1S)-1-phenyl-ethyl]-amide]	4.7 ± 0.40	5.6 ± 0.76	3.8 ± 0.40	3.6 ± 0.53
